# Laboratory results taken from paper PMC5706701, “Development of a homogenous high-throughput assay for inositol hexakisphosphate kinase 1 activity” (PLoS ONE, 2017).
# Where a name gives a salt, the structure may show the parent alone. Read-outs that look alike come from different tables or passages of the source.
# Target: T1, Human IP6K1 (Homo sapiens, UniProt Q92551)
# T1 construct: GST (N, cleaved yes); made in house; host or cells: C43 E. coli, pGEX-6P-2
# Assay: IP6K1 high-throughput screen of the Sigma LOPAC (ADP-Glo Max, single point);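 also: final compound concentration 10µM in 5% DMSO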
# Type: biochemical
# [1] = LOPAC single-point screen, ADP-Glo Max raw signal per well
# [2] = LOPAC single-point screen, Z-score against plate average and StDev
# [3] = LOPAC single-point screen, Z-score from raw signal with plate average and StDev
# [4] = Sigma LOPAC single-point screen, ADP-Glo Max raw signal per well
# [5] = Sigma LOPAC single-point screen, Z-score from plate average and StDev
# [6] = LOPAC single-point screen, ADP-Glo Max luminescence raw signal per well
# [7] = LOPAC single-point screen, Z-score relative to plate average and StDev
# [8] = LOPAC single-point screen, Z-score from plate average and StDev
# T1 sequence (Q92551 whole entry): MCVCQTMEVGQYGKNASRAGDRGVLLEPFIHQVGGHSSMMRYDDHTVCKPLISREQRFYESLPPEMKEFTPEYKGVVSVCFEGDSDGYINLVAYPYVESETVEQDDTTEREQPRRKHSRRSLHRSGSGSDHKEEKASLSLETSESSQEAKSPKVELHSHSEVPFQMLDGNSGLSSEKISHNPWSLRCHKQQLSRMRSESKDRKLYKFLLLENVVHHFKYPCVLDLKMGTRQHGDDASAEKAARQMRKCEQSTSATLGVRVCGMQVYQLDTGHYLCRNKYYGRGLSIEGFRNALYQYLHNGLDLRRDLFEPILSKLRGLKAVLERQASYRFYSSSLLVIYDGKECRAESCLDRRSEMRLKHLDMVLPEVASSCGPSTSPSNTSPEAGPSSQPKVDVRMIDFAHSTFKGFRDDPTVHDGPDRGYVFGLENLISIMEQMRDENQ
smiles,measurement,setting,value
C[C@]12CC[C@@H](O)C[C@@H]1CC[C@@H]1[C@@H]2CC[C@]2(C)[C@@H](C(=O)CO)CC[C@@H]12,Raw Signal,[1],54259
same,Z-score,[2],-0.0226
Cl.O=C(CCCN1CCC2(CC1)C(=O)N(CCc1ccc(N=C=S)cc1)CN2c1ccccc1)c1ccc(F)cc1,Raw Signal,[1],54409
same,Z-score,[2],0.002603
NCCCCN=C(N)N [Agmatine sulfate],Raw Signal,[1],56032
same,Z-score,[3],-0.3313
"Cl.c1ccc(CN2CCC3(CCCc4ccccc43)CC2)cc1 [L-687,384 hydrochloride]",Raw Signal,[4],58533
same,Z-score,[5],0.6955
CC[N+](C)(C)c1cccc(O)c1 [Edrophonium chloride],Raw Signal,[4],58129
same,Z-score,[5],0.6015
NC(=O)c1cc[n+](CC2=C(C(=O)[O-])N3C(=O)[C@@H](NC(=O)C(c4ccccc4)S(=O)(=O)[O-])[C@H]3SC2)cc1.O.[Na+] (some centres unmarked) [Cefsulodin sodium salt hydrate],Raw Signal,[1],56779
same,Z-score,[3],-0.1997
CC1(C(=O)O)C2CCC(O2)C1(C)C(=O)O (centres unmarked) [Cantharidic Acid],Raw Signal,[4],61779
same,Z-score,[5],0.6809
CCCC(C(=O)OCCN(CC)CC)(c1ccccc1)c1ccccc1.Cl [SKF-525A hydrochloride],Raw Signal,[6],51241
same,Z-score,[7],-0.5297
O=C1NC(=O)C(c2ccccc2)(c2ccccc2)N1 [Phenytoin sodium],Raw Signal,[6],66782
same,Z-score,[8],2.359
CSc1ccc(C(=O)c2[nH]c(=O)[nH]c2C)cc1 [Enoximone],Raw Signal,[6],64614
same,Z-score,[8],1.919
NC(=O)c1ccc(OCC(O)CN2CC=C(c3ccc(F)cc3)CC2)cc1 (centres unmarked) [Ro 8-4304],Raw Signal,[6],63292
same,Z-score,[8],1.412
"CCOC(=O)c1ncn2c1[C@@H]1CCCN1C(=O)c1cc(OC)ccc1-2 [L-655,708]",Raw Signal,[1],54093
same,Z-score,[2],-0.05049
C[C@]12CC[C@@H](O)C[C@@H]1CC[C@@H]1[C@@H]2CC[C@]2(C)C(=O)CC[C@@H]12 [Androsterone],Raw Signal,,54396
same,Z-score,,-0.6195
N[C@H](C(=O)O)[C@H]1C[C@@H]1C(=O)O,Raw Signal,[1],55555
same,Z-score,[2],0.07879
CC(C)OC(=O)C(C)(C)Oc1ccc(C(=O)c2ccc(Cl)cc2)cc1 [Fenofibrate],Raw Signal,[6],61843
same,Z-score,[8],1.356
Cl.N=C(N)NN [Aminoguanidine hydrochloride],Raw Signal,[1],58743
same,Z-score,[2],0.1462
O=c1ccc2ccc(O)c(O)c2o1 [Daphnetin],Raw Signal,[1],55045
same,Z-score,[2],-0.02478
Cl.O=C(O)Cc1c[nH]cn1 [Imidazole-4-acetic acid hydrochloride],Raw Signal,[1],55616
same,Z-score,[2],0.09118
NN=C(N)N.NN=C(N)N.O=S(=O)(O)O [Aminoguanidine hemisulfate],Raw Signal,[1],58107
same,Z-score,[2],0.03415
CC(=O)CCCCn1c(=O)c2c(ncn2C)n(C)c1=O [Pentoxifylline],Raw Signal,[1],53271
same,Z-score,[3],-0.1886
C[C@](N)(CCP(=O)(O)O)C(=O)O.Cl [(S)-MAP4 hydrochloride],Raw Signal,[1],53240
same,Z-score,[3],-0.1938
Cc1ccc(Cl)c(Nc2ccccc2C(=O)O)c1Cl [Meclofenamic acid sodium],Raw Signal,[4],59966
same,Z-score,[5],0.9363
CCCC(C)(COC(N)=O)COC(=O)NC(C)C (centres unmarked) [Carisoprodol],Raw Signal,[4],61112
same,Z-score,[5],0.5634
CC(Oc1ccc(Oc2cnc3ccc(Cl)cc3n2)cc1)C(=O)O (centres unmarked) [XK469],Raw Signal,[1],55038
same,Z-score,[3],-0.1915
CN(C)[C@@H]1C(O)=C(C(N)=O)C(=O)[C@@]2(O)C(O)=C3C(=O)c4c(O)ccc(Cl)c4[C@@H](O)[C@H]3C[C@@H]12 [Demeclocycline hydrochloride],Raw Signal,[6],42734
same,Z-score,[7],-2.525
COc1ccccc1N1CCN(CCCCNC(=O)c2ccc3ccccc3c2)CC1 [BP 897],Raw Signal,[4],60942
same,Z-score,[5],0.5335
"C[C@]12CCC(=O)C(O)=C1CC[C@@H]1[C@@H]2CC[C@]2(C)C(=O)CC[C@@H]12 [4-Androsten-4-ol-3,17-dione]",Raw Signal,[6],53811
same,Z-score,[7],-0.7225
Cc1c(OCC(F)(F)F)ccnc1C[S+]([O-])c1nc2ccccc2[nH]1 (centres unmarked) [Lansoprazole],Raw Signal,[1],53701
same,Z-score,[3],-0.1164
"Cn1c(=O)c2[nH]c(C3CCCC3)nc2n(C)c1=O [8-Cyclopentyl-1,3-dimethylxanthine]",Raw Signal,[4],58283
same,Z-score,[5],0.6328
CN(C)CCCO[C@@H]1[C@H]2OC(C)(C)O[C@H]2O[C@@H]1[C@H](O)CO [Amiprilose hydrochloride],Raw Signal,[6],53728
same,Z-score,[7],-0.7371
CN1C2CCC1CC(OC(=O)c1c[nH]c3ccccc13)C2.Cl (centres unmarked),Raw Signal,[1],56078
same,Z-score,[2],0.01053
CC[C@H]1CN2CCc3cc(OC)c(OC)cc3[C@@H]2C[C@@H]1C[C@H]1NCCc2cc(OC)c(OC)cc21 [Emetine dihydrochloride hydrate],Raw Signal,[1],52998
same,Z-score,[3],-0.4405
CCc1cccc2c3c([nH]c12)C(CC)(CC(=O)O)OCC3 (centres unmarked) [Etodolac],Raw Signal,[4],60333
same,Z-score,[5],1.049
C[C@H]1c2cccc(O)c2C(=O)C2=C(O)[C@]3(O)C(=O)C(C(N)=O)=C(O)[C@@H](N(C)C)[C@@H]3[C@@H](O)[C@@H]21 [Doxycycline hydrochloride],Raw Signal,[6],51944
same,Z-score,[7],-0.6546
C[N+]1(C)CCOC(O)(c2ccc(-c3ccc(C4(O)C[N+](C)(C)CCO4)cc3)cc2)C1 (centres unmarked) [Hemicholinium-3],Z-score,[3],-0.115
CCCCc1ccc(C(=O)O)nc1 [Fusaric acid],Raw Signal,[6],50850
same,Z-score,[7],-0.8767
CCCN(CC1CC1)c1nc(C)nc(Nc2c(Cl)cc(Cl)cc2Cl)c1Cl [NBI 27914],Raw Signal,[6],52610
same,Z-score,[7],-0.5193
"Cl.FC(F)(F)c1cc(CO[C@H]2CCCN[C@H]2c2ccccc2)cc(C(F)(F)F)c1 [L-733,060 hydrochloride]",Raw Signal,[1],52038
same,Z-score,[3],-0.3958
CC1=NS(=O)(=O)c2cc(Cl)ccc2N1 [Diazoxide],Raw Signal,[4],58351
same,Z-score,[5],0.6466
Nc1ncnc2c1c(-c1ccc(Oc3ccccc3)cc1)cn2C1CCCC1,Raw Signal,[1],53911
same,Z-score,[3],-0.2551
CCNC(=O)[C@H]1O[C@@H](n2cnc3c(N)nc(NCCc4ccc(CCC(=O)O)cc4)nc32)[C@H](O)[C@@H]1O.Cl [CGS-21680 hydrochloride],Raw Signal,[6],62301
same,Z-score,[8],1.449
S=C([S-])OC1CC2CC1C1CCCC21.[K+] [D-609 potassium],Raw Signal,[1],55448
same,Z-score,[3],-0.1119
CN1CCN(CC(=O)N2c3ccccc3C(=O)Nc3cccnc32)CC1 [Pirenzepine dihydrochloride],Raw Signal,[4],62871
same,Z-score,[5],1.33
COc1ccccc1CNCCCCCCNCCCCCCCCNCCCCCCNCc1ccccc1OC.Cl.Cl.Cl.Cl [Methoctramine tetrahydrochloride],Raw Signal,[4],56889
same,Z-score,[5],0.4193
CC(C)C[C@H](NC(=O)[C@H](O)[C@H](N)Cc1ccccc1)C(=O)O [Epibestatin hydrochloride],Raw Signal,[1],58771
same,Z-score,[2],0.1511
Cl.NCC(O)c1ccc(O)cc1 (racemic) [(±)-Octopamine hydrochloride],Raw Signal,[1],52629
same,Z-score,[3],-0.2965
CC(C)(C)C1(O)CCN2CC3c4ccccc4CCc4cccc(c43)C2C1.Cl (racemic) [(±)-Butaclamol hydrochloride],Raw Signal,[4],57693
same,Z-score,[5],0.513
CC(C)N(CCC(C(N)=O)(c1ccccc1)c1ccccn1)C(C)C (centres unmarked) [Disopyramide],Raw Signal,[6],43822
same,Z-score,[7],-2.304
C[C@H](N)CN1CCc2ccc(Br)cc21.C[C@H](N)CN1CCc2ccc(Br)cc21.O=C(O)/C=C/C(=O)O [VER-3323 hemifumarate salt],Raw Signal,[4],59728
same,Z-score,[5],0.8963
N[C@@H](Cc1c[nH]c2ccccc12)C(=O)O [L-Tryptophan],Raw Signal,[4],60593
same,Z-score,[5],0.8877
Cl.Fc1ccc(C(OCCCc2c[nH]cn2)c2ccc(F)cc2)cc1,Raw Signal,[1],51668
same,Z-score,[3],-0.458
CC(=O)c1ccc(S(=O)(=O)NC(=O)NC2CCCCC2)cc1 [Acetohexamide],Raw Signal,[4],64165
same,Z-score,[5],1.101
CN(C)c1cc2c(Nc3ccc4c(cnn4Cc4ccccc4)c3)ncnc2cn1 [GW2974],Raw Signal,[1],53289
same,Z-score,[3],-0.3814
C=CC(N)CCC(=O)O (racemic) [(±)-gamma-Vinyl GABA],Raw Signal,[6],68019
same,Z-score,[8],2.33
NC(=O)CC[C@H](N)C(=O)O [L-Glutamine],Raw Signal,[4],57892
same,Z-score,[5],0.5534
CNCC(O)c1ccc(O)cc1 (racemic) [(±)-Synephrine],Raw Signal,[1],56579
same,Z-score,[2],0.1079
O=C(CCCN1CCC2(CC1)C(=O)NCN2c1ccccc1)c1ccc(F)cc1 [Spiperone hydrochloride],Raw Signal,[6],52620
same,Z-score,[7],-0.6613
CCC1(c2ccccc2)C(=O)NCNC1=O [Primidone],Raw Signal,[4],58828
same,Z-score,[5],0.5448
C[N+](C)(C)CCOC(=O)CBr.[Br-] [Bromoacetylcholine bromide],Raw Signal,[6],53767
same,Z-score,[7],-0.7302
CNCCC(Oc1ccccc1OC)c1ccccc1 (centres unmarked) [Nisoxetine hydrochloride],Raw Signal,,55675
same,Z-score,,0.2153
Nc1nc(Cl)nc2c1ncn2C1OC(CO)C(O)C1O (centres unmarked) [2-Chloroadenosine],Raw Signal,[1],58125
same,Z-score,[2],0.03732
CC(C)(CO)Cc1cc(C(C)(C)C)c(O)c(C(C)(C)C)c1 [CGP-7930],Raw Signal,[4],64858
same,Z-score,[5],1.223
Nc1nc2ccc(Cl)cc2c2nc(-c3ccco3)nn12 [CGS-15943],Raw Signal,,60608
same,Z-score,,1.105
